Here are results for 12 compounds from US7074789B2, “Kinase inhibitors” (Amgen Inc., priority 1999, dated 2006).

A value given as a limit tells only on which side of the number the result lay.

Common to all, as to assay type: biochemical
One test addresses T1, Lck (Homo sapiens, UniProt P06239).
T1 construct: Kinases are expressed as either kinase domains or full length constructs; made in house
The experiment in a line: Kinase inhibition assay (33P transfer), Lck. The conditions noted are these: Table 3; for IC50: read-out: Lck-1. In a few lines: (§1)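 Liquid scintillation counting of 33P on plate-bound synthetic substrates gives kinase activity. Plates are washed in 0.5% phosphoric acid first; kinases are tagged recombinant proteins from E. coli or baculovirus-infected High Five cells.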

The target of the next test is T2, Zap-70 (Homo sapiens, UniProt P43403).
T2 construct: Kinases are expressed as either kinase domains or full length constructs; made in house
T2 sequence (P43403 1-619): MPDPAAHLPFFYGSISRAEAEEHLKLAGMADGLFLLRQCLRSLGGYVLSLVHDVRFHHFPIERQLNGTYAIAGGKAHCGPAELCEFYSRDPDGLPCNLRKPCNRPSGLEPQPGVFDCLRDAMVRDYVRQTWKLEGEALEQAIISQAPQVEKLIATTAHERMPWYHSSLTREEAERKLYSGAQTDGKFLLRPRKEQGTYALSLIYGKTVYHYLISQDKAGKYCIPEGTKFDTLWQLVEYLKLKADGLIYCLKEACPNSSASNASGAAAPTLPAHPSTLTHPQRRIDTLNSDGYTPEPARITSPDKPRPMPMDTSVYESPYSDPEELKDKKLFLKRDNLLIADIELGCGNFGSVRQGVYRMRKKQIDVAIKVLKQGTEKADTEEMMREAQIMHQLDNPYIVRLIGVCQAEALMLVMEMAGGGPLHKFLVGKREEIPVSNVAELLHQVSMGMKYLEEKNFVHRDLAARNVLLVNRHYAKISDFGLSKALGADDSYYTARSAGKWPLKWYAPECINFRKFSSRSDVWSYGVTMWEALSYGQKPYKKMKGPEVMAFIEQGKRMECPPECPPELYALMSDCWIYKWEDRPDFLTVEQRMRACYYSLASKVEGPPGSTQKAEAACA
The experiment in a line: Kinase inhibition assay (33P transfer), Zap-70. To be noted: Table 3; for IC50: read-out: Zap-1. The gist of the method:
as §1

A further test concerns the target T3, Itk (Homo sapiens, UniProt Q08881).
T3 construct: Kinases are expressed as either kinase domains or full length constructs; made in house
T3 sequence (Q08881 1-620): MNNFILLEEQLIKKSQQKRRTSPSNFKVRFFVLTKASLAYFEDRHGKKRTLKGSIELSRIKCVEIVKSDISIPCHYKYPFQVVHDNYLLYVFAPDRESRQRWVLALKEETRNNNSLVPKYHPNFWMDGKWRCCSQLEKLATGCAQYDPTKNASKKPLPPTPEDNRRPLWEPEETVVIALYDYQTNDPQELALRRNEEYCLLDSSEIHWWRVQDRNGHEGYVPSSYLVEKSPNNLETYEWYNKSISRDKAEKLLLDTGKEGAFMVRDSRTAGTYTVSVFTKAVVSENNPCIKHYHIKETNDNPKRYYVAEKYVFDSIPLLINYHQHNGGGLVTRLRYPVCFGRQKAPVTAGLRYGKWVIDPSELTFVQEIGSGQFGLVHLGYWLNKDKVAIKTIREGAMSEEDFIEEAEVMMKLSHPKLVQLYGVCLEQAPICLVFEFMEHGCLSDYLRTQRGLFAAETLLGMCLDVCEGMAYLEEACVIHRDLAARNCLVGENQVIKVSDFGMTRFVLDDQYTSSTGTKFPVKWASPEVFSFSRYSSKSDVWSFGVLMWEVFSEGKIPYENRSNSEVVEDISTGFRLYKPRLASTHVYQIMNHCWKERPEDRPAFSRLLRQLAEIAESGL
The experiment in a line: Kinase inhibition assay (33P transfer), Itk. The conditions noted are these: Table 3; for IC50: read-out: Itk-1. The gist of the method: (§2)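 Each enzyme, purified to near homogeneity by affinity chromatography, was incubated with ATP carrying 33P and a substrate polymer fixed to the plate. Unbound label was removed with dilute phosphoric acid (0.5%) before adding scintillant and counting. Potency is given as the compound level cutting label uptake by 50%.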

The next test addresses T4, EGFR (Homo sapiens, UniProt P00533).
T4 construct: Kinases are expressed as either kinase domains or full length constructs; made in house
The experiment in a line: Kinase inhibition assay (33P transfer), EGFR. To be noted: Table 2, kinase inhibition class; for IC50: read-out: EGFR-1. The gist of the method: as §2

Another test has as its target T5, Kdr (Homo sapiens, UniProt P35968).
T5 construct: Kinases are expressed as either kinase domains or full length constructs; made in house
The experiment in a line: Kinase inhibition assay (33P transfer), Kdr. To be noted: Table 3; for IC50: read-out: KDR-1. In a few lines: as §1

The target of another test is T6, Tek (Homo sapiens, UniProt Q02763).
T6 construct: Kinases are expressed as either kinase domains or full length constructs; made in house
The test can be described thus: Kinase inhibition assay (33P transfer), Tek. The conditions noted are these: read-out: Tek-1. The gist of the method: as §2

A further test addresses T7, c-Met (Homo sapiens, UniProt P08581).
T7 construct: Kinases are expressed as either kinase domains or full length constructs; made in house
The experiment in a line: Kinase inhibition assay (33P transfer), c-Met. The conditions noted are these: Table 2, kinase inhibition class; for IC50: read-out: Met-1. In a few lines:
as §2

The next test deals with T8, AKT (Homo sapiens, UniProt Q9Y243).
T8 construct: Kinases are expressed as either kinase domains or full length constructs; made in house
The test can be described thus: Kinase inhibition assay (33P transfer), AKT. The conditions noted are these: Table 2, kinase inhibition class; for IC50: read-out: AKT3-1. In a few lines: as §1

A further test deals with T9, IGFR-1 (Homo sapiens, UniProt P08069).
T9 construct: Kinases are expressed as either kinase domains or full length constructs; made in house
The test can be described thus: Kinase inhibition assay (33P transfer), IGFR-1. The conditions noted are these: Table 2, kinase inhibition class.

The target in another test is T10, EPHB4 (Homo sapiens, UniProt P54760).
T10 construct: Kinases are expressed as either kinase domains or full length constructs; made in house
T10 sequence (P54760 16-987): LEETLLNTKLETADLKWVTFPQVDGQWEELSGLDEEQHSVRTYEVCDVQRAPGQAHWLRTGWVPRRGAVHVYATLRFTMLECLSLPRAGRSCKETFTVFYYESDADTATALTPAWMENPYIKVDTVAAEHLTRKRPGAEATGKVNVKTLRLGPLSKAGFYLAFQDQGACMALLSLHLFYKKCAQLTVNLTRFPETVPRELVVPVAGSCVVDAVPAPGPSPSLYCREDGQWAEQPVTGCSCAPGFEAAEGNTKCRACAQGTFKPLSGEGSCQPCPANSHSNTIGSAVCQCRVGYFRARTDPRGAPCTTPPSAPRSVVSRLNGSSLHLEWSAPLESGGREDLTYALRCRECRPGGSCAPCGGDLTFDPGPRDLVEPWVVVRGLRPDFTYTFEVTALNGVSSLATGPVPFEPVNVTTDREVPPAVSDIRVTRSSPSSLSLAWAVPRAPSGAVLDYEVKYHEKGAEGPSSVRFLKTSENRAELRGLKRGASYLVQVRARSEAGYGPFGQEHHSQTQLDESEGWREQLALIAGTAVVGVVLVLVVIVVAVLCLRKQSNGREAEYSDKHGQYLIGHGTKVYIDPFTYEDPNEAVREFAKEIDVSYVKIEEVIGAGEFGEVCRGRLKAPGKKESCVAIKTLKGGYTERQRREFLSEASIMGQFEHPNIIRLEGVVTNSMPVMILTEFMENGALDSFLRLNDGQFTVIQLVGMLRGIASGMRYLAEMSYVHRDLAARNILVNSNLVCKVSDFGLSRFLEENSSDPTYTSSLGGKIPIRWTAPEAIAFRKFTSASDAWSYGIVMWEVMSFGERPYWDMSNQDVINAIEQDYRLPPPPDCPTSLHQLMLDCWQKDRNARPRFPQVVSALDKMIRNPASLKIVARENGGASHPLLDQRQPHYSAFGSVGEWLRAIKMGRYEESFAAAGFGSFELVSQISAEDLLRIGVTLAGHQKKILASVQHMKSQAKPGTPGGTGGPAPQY
The experiment in a line: Kinase inhibition assay (33P transfer), EPHB4. To be noted: for IC50: read-out: EPHB4-1.

T4 sequence (P00533 25-1210, species assumed): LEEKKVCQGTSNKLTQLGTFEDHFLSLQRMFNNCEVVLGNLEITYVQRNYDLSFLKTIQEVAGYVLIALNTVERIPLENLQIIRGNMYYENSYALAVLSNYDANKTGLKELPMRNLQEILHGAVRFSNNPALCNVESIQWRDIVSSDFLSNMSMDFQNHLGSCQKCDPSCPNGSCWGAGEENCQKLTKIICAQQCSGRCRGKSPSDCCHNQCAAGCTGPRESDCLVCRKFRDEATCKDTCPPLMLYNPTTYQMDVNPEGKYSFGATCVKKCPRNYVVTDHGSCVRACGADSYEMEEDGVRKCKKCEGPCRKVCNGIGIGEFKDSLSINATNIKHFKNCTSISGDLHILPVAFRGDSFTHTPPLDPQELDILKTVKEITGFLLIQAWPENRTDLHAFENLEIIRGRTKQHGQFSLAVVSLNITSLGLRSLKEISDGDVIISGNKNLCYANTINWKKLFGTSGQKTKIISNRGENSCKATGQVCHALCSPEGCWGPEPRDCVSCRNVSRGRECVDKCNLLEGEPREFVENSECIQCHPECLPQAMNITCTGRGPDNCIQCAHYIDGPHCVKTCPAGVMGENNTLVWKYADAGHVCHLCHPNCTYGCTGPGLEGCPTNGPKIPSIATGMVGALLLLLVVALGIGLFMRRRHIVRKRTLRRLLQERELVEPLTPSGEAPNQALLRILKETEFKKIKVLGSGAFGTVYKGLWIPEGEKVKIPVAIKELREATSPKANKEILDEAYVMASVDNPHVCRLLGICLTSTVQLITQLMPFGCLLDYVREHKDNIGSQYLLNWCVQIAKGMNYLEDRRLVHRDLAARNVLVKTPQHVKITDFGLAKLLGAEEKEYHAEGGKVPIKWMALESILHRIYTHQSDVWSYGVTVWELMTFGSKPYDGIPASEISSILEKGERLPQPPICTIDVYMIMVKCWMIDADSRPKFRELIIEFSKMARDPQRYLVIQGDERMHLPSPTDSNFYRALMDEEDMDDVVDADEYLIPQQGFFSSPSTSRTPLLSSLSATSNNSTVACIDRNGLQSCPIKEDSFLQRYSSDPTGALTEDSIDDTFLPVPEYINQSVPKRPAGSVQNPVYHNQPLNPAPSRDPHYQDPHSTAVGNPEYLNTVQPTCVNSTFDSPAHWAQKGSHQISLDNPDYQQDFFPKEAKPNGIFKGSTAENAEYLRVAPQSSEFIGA
T8 sequence (Q9Y243 whole entry, the tested form may be a part): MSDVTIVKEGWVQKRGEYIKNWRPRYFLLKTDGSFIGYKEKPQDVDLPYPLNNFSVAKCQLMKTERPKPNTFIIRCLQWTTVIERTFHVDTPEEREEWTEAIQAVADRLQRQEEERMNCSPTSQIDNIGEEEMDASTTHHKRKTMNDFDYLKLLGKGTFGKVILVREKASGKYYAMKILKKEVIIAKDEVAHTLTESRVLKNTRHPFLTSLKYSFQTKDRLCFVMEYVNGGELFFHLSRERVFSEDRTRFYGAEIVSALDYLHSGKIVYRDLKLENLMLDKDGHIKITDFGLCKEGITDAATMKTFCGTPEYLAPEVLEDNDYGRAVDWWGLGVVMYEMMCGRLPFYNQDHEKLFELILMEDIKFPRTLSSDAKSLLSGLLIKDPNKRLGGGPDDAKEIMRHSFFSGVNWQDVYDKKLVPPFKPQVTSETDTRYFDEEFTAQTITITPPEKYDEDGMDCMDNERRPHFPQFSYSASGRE
T1 sequence (P06239 whole entry, species assumed, the tested form may be a part): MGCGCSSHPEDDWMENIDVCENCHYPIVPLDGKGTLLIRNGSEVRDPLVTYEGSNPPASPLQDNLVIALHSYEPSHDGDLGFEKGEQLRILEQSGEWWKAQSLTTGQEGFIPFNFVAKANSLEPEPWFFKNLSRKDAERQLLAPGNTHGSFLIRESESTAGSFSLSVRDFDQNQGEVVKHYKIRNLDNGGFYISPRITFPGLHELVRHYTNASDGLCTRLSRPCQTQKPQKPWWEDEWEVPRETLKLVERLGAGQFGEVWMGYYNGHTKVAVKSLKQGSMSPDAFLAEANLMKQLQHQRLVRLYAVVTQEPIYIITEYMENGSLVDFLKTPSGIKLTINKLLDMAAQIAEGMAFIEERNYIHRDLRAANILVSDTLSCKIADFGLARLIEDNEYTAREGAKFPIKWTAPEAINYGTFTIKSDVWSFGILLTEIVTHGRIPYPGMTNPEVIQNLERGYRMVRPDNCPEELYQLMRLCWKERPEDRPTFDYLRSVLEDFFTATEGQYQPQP
T7 sequence (P08581 25-1390): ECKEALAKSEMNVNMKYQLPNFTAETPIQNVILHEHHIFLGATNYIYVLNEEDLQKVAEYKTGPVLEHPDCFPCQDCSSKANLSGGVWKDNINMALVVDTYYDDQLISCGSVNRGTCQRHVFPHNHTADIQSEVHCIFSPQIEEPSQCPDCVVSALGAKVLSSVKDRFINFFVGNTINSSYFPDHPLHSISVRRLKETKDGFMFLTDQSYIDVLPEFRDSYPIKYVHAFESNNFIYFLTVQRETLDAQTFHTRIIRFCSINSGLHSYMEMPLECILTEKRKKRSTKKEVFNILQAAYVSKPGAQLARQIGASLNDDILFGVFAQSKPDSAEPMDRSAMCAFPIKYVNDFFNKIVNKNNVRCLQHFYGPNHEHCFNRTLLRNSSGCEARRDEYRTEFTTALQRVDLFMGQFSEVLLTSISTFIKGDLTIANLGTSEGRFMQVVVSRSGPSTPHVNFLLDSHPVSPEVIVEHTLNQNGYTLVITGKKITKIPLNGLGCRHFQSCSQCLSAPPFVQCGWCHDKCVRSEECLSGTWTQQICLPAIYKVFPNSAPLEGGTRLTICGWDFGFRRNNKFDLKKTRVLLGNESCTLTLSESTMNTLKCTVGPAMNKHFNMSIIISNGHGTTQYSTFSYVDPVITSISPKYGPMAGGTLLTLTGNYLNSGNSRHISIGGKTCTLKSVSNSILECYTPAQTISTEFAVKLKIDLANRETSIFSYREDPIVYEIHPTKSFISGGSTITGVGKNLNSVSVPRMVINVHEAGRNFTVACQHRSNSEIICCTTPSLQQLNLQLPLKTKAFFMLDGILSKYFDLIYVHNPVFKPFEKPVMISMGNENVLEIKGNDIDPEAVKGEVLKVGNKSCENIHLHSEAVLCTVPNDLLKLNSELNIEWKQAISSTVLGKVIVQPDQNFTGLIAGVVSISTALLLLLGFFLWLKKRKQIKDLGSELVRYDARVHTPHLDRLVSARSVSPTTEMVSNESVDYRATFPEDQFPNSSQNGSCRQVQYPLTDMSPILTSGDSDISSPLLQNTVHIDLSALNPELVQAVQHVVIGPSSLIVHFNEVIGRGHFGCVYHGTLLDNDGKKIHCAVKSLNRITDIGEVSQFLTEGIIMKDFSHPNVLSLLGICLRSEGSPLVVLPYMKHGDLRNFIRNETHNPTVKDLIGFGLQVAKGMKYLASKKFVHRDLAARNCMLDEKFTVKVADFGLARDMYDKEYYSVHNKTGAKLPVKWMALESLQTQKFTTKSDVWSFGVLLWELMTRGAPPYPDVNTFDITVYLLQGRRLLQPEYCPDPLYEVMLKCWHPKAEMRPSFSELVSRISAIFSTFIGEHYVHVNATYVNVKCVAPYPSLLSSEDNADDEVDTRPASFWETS
T5 sequence (P35968 20-1356, species assumed): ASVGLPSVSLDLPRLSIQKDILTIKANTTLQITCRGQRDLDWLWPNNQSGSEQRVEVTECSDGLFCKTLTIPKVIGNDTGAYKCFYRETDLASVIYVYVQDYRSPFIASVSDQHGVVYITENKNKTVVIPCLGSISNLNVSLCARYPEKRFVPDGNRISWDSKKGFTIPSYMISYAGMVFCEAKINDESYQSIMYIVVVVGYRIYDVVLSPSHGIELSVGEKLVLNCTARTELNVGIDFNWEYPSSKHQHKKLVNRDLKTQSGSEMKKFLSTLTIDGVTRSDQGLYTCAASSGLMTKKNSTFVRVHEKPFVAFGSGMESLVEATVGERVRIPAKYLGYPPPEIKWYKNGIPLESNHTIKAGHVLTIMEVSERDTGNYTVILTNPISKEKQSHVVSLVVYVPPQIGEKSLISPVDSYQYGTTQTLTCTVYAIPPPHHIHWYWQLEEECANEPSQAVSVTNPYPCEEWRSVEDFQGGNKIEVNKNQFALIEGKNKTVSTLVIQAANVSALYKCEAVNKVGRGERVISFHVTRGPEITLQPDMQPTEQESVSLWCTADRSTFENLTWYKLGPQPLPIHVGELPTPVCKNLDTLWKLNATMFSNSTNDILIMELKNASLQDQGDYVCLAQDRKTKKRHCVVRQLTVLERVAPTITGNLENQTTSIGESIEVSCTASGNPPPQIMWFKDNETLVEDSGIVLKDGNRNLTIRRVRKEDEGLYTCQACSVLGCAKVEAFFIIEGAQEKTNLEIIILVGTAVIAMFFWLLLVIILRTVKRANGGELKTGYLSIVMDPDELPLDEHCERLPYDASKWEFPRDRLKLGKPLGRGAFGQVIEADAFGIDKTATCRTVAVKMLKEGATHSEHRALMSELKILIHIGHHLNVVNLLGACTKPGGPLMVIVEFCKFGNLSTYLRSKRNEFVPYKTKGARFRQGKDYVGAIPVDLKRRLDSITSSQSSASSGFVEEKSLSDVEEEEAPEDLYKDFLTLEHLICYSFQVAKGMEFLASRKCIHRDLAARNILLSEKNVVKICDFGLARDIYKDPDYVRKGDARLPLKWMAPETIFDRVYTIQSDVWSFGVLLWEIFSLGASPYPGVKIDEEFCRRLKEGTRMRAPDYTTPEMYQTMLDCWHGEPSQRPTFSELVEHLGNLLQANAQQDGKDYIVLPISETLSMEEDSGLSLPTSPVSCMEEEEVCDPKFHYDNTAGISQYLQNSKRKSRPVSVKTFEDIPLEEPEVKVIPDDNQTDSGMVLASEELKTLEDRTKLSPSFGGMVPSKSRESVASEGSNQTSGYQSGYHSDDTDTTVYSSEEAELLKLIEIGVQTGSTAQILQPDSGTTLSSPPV

For `COc1cc(NC(=O)Nc2ncnc(Nc3cc(OC)c(OC)c(OC)c3)n2)cc(OC)c1` [Compound 22], the IC50 on Lck was above 9.86 µM; at Zap-70 it was above 9.86 µM; at Itk, above 9.86 µM; at EGFR, above 9.86 µM; on Kdr, above 9.86 µM; on Tek, 7.67 to 9.86 µM. Besides, the IC50 on c-Met, at AKT, against IGFR-1 and on EPHB4 was above 9.86 µM each time.
Regarding `COc1cc(Nc2ncnc(Nc3ccncc3)n2)cc(OC)c1OC` [Compound 39], the IC50 on Lck, on Zap-70, on Itk, on EGFR, on Kdr and on c-Met was above 12.7 µM each time. Besides, the IC50 on AKT, against IGFR-1 and at EPHB4 was above 12.7 µM throughout.
As to `COc1cc(Nc2ncnc(Nc3ccccn3)n2)cc(OC)c1OC` [Compound 40], the IC50 at Lck, on Zap-70, on Itk, on EGFR, at Kdr and on c-Met was above 12.7 µM in each case. Also, the IC50 at AKT, at IGFR-1 and at EPHB4 was above 12.7 µM throughout.
As to `COc1cc(Nc2ncnc(Nc3ccc(NC(=O)OC(C)(C)C)cc3)n2)cc(OC)c1OC` [Compound 69], the IC50 is 0.854 to 5.12 µM on Lck; above 9.6 µM at Zap-70; above 9.6 µM on Itk; above 9.6 µM on EGFR; 0.854 to 5.12 µM at Kdr; above 9.6 µM at c-Met. The IC50 on AKT, against IGFR-1 and on EPHB4 was above 9.6 µM each time.
In the case of `COc1cc(Nc2ncnc(Nc3cccc(OCc4ccccc4)c3)n2)cc(OC)c1OC` [Compound 73], the IC50 at Lck, on Zap-70, at Itk, at EGFR, at Kdr and on c-Met was above 9.79 µM throughout. Besides, the IC50 on AKT, against IGFR-1 and at EPHB4 was above 9.79 µM in each case.
Turning to `COc1cc(Nc2ncnc(-c3ccc(C)cc3)n2)cc(OC)c1OC` [Compound 221], the IC50 was above 12.8 µM at Lck; above 12.8 µM on Zap-70; above 12.8 µM on Itk; above 12.8 µM at EGFR; 1.14 to 6.81 µM at Kdr; above 12.8 µM at c-Met. For the same compound, the IC50 on AKT was above 12.8 µM; on IGFR-1, below 1.14 µM; at EPHB4 it was 1.14 to 6.81 µM.
Take `FC(F)C(F)(F)Oc1cccc(Nc2ncnc(-c3ccnc(Cl)c3)n2)c1` [Compound 330]: the IC50 at Lck, on Zap-70, on Itk, at EGFR, on Kdr and at c-Met was above 11.3 µM throughout. Besides, the IC50 at AKT is above 11.3 µM; on IGFR-1, 8.76 to 11.3 µM; on EPHB4, 6 to 8.76 µM.
For `COc1cc(Nc2ncnc(-n3cc(C#N)c4ccccc43)n2)cc(OC)c1OC` [Compound 332], the IC50 at Lck is 8.7 to 11.2 µM; on Zap-70 it was above 11.2 µM; at Itk, above 11.2 µM; on EGFR it was above 11.2 µM; on Kdr, 0.994 to 5.96 µM; at c-Met it was 5.96 to 8.7 µM. Also, the IC50 at AKT is above 11.2 µM; on IGFR-1, 5.96 to 8.7 µM; on EPHB4, 0.994 to 5.96 µM.
Turning to `COc1cc(C)c(Nc2ncnc(Nc3cc(-c4ccco4)n[nH]3)n2)cc1OC` [Compound 338], the IC50 is 1.02 to 6.1 µM at Lck; above 11.4 µM on Zap-70; above 11.4 µM on Itk; 1.02 to 6.1 µM on EGFR; 1.02 to 6.1 µM on Kdr; 1.02 to 6.1 µM on c-Met. The IC50 is above 11.4 µM at AKT, below 1.02 µM against IGFR-1 and 6.1 to 8.9 µM at EPHB4.
Turning to `COC(=O)c1cc(Nc2ncnc(Nc3cc(-c4ccco4)n[nH]3)n2)cc(C(=O)OC)c1` [Compound 343], the IC50 on Lck was above 10.3 µM; at Zap-70 it was above 10.3 µM; at Itk, above 10.3 µM; on EGFR, above 10.3 µM; on Kdr, 0.919 to 5.51 µM; on c-Met, 8.04 to 10.3 µM. Further, the IC50 on AKT was above 10.3 µM; against IGFR-1, 0.919 to 5.51 µM; on EPHB4, 0.919 to 5.51 µM.
`COc1cc(Nc2ncnc(-n3c(Nc4ccc(C#N)cc4)nc4ccccc43)n2)cc(OC)c1OC` [Compound 381]: the IC50 at Lck is 7.08 to 9.1 µM; on Zap-70, above 9.1 µM; at Itk it was above 9.1 µM; on EGFR, above 9.1 µM; at Kdr, 4.85 to 7.08 µM; on c-Met, 7.08 to 9.1 µM. The IC50 was above 9.1 µM at AKT, above 9.1 µM against IGFR-1 and 0.809 to 4.85 µM at EPHB4.
As to `COc1cc(NC(=O)Nc2ncnc(-c3ccncc3)n2)cc(OC)c1OC` [Compound 1118], the Lck-1 entry at Lck was “E (E>4.5 ug/mL)”. Further, the Zap-1 entry on Zap-70 is given as “E (E>4.5 ug/mL)”. At Itk, the Itk-1 result is on record as “E (E>4.5 ug/mL)”. For the same compound, on EGFR, the EGFR-1 result is “B (B>0.4 and <2.4 ug/mL)”. Moreover, at Kdr, the KDR-1 result is given as “E (E>4.5 ug/mL)”. The Met-1 result on c-Met is listed as “E (E>4.5 ug/mL)”. Also, the AKT3-1 result on AKT is reported as “E (E>4.5 ug/mL)”. For the same compound, on IGFR-1, the IGFR-1 result is “E (E>4.5 ug/mL)”. Besides, at EPHB4, the EPHB4-1 entry is listed as “E (E>4.5 ug/mL)”.
